Measurements as given in patent US8501446B2 (Vertex Pharmaceuticals Incorporated, priority 2004, dated 2013).

Tests used:
Format in all cases: biochemical
ROCK I (AA 6-553) = target: T1, ROCK I (AA 6-553) (Homo sapiens, UniProt Q13464); experiment: ROCK inhibition assay, standard coupled enzyme system ("Enzyme"); conditions: enzyme-linked assay
T1 construct: ROCK I (AA 6-553)
In short: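 ROCK I (AA 6-553) at 45 nM and 30 °C with 45 μM ATP and 200 μM peptide, in 100 mM HEPES pH 7.5, 10 mM MgCl2, 25 mM NaCl, 2 mM DTT, 1.5% DMSO. ADP output read by a PK/LDH coupled system: 2.5 mM PEP, 350 μM NADH, 30 μg/ml PK, 10 μg/ml LDH.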

[1] = target: T2, full length Aurora-A (AA 1-403) (Homo sapiens, UniProt O14965); experiment: Aurora-A inhibition assay, standard coupled enzyme system; conditions: average Ki if more than one value determined
T2 construct: full length Aurora-A (AA 1-403)
T2 sequence (O14965 1-403): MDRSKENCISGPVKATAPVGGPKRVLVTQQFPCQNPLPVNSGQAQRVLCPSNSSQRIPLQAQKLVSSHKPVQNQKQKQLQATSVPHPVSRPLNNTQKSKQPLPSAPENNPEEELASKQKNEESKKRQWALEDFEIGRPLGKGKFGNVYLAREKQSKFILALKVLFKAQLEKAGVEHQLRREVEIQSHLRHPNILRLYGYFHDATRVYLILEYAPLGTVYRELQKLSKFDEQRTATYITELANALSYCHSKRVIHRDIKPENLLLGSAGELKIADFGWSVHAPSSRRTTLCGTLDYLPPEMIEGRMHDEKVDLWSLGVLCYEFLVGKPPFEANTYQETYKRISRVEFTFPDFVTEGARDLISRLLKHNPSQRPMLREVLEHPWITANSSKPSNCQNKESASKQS

Aurora-B = Aurora-B (Homo sapiens, UniProt Q96GD4); experiment: Aurora-B inhibition assay, radioactive assay; conditions: average Ki if more than one value determined
Experimental: Compounds were screened for their ability to inhibit JAK3 using a standard radioactive enzyme assay. 1.5 μL/well of a DMSO stock containing serial dilutions of a compound of the present invention (concentrations ranging from 667 μM to 46 nM) was placed in a 96 well polycarbonate plate. 50 μL per well of kinase buffer (100 mM HEPES (pH 7.4), 10 mM MgCl2, 25 mM NaCl, 1 mM DTT, and 0.01% bovine serum albumin (BSA)) containing 2 μM poly(Glu)4Tyr and 10 μM ATP was also added to the plate. To initiate the reaction, 50 μL kinase buffer containing 2 nM JAK3 enzyme was added. Final ATP concentration was 5 μM [γ-^33P] ATP (200 μCi ^33P ATP/μmol ATP (Perkin Elmer, Cambridge, Mass.). After 20 minutes at room temperature (25° C.), the reaction was stopped by adding 50 μL 20% trichloroacetic acid (TCA)/0.4 mM ATP to each well. The entire content of each well was then transferred to a 96 well glass fiber filter plate using a TomTek Cell Harvester. After washing, 60 μL scintillation fluid was added and ^33P incorporation detected using a Perkin Elmer TopCount. After removing mean background values for all of the data points the data was fit using Prism software to obtain a Ki(app). Inhibition of JAK2 was measured as above except that final poly(Glu)4Tyr concentration was 15 μM and final ATP concentration was 12 μM.
Some compounds were screened for their ability to inhibit ROCK using a standard radioactive enzyme assay. Assays were carried out in a solution containing 100 mM HEPES (pH 7.5), 10 mM MgCl2, 25 mM NaCl, 2 mM DTT, and 1.5% DMSO. Final substrate concentrations in the assay were 13 μM [γ-^33P] ATP (25 mCi ^33P ATP/mmol ATP, Perkin Elmer, Cambridge, Mass./Sigma Chemicals, St Louis, Mo.) and 27 μM Myelin Basic Protein (MBP). Final enzyme concentration in the assay was 5 nM ROCK. Assays were carried out at room temperature. 1.5 μl of DMSO stock containing serial dilutions of the compound of the present invention (concentrations ranging from 10 μM to 2.6 nM) was placed in a 96 well plate. 50 μl of Solution 1 (100 mM HEPES (pH 7.5), 10 mM MgCl2, […]) was added to the plate. The reaction was initiated by addition of 50 μl of Solution 2 (100 mM HEPES (pH 7.5), 10 mM MgCl2, 4 mM DTT, […] and 10 nM ROCK). After 2 hours the reaction was quenched with 50 μL of 30% trichloroacetic acid (TCA, Fisher) containing 9 mM ATP. Transfer of 140 μL of the quenched reaction to a glass fiber filter plate (Corning, Cat. No. 3511) was followed by washing 3 times with 5% TCA. 50 μL of Optima Gold scintillation fluid (Perkin Elmer) was added and the plates were counted on a Top Count (Perkin Elmer). After removing mean background values for all of the data points the data was fit using Prism software to obtain a Ki(app).
(§1) An assay stock buffer solution was prepared containing all of the reagents listed above with the exception of ATP and the test compound of interest. The assay stock buffer solution (60 μl) was incubated in a 96 well plate with 2 μl of the test compound of interest at final concentrations spanning 0.002 μM to 30 μM at 30° C. for 10 min. Typically, a 12 point titration was conducted by preparing serial dilutions (from 1 mM compound stocks) with DMSO of the test compounds in daughter plates. The reaction was initiated by the addition of 5 μl of ATP (final concentration 200 μM). Rates of reaction were obtained using a Molecular Devices Spectramax plate reader (Sunnyvale, Calif.) over 10 min at 30° C. The Ki values were determined from the rate data as a function of inhibitor concentration using computerized nonlinear regression (Prism 3.0, Graphpad Software, San Diego, Calif.). Aurora-C activity was screened in a similar manner using Aurora-C protein. Aurora-B activity was screened using a radioactive assay, such as described in Examples 1 and 2, but using Aurora-B protein.

Aurora-C = target: T3, Aurora-C (Homo sapiens, UniProt Q9UQB9); experiment: Aurora-C inhibition assay, coupled enzyme system as for Aurora-A; conditions: average Ki if more than one value determined
T3 sequence (Q9UQB9 1-309): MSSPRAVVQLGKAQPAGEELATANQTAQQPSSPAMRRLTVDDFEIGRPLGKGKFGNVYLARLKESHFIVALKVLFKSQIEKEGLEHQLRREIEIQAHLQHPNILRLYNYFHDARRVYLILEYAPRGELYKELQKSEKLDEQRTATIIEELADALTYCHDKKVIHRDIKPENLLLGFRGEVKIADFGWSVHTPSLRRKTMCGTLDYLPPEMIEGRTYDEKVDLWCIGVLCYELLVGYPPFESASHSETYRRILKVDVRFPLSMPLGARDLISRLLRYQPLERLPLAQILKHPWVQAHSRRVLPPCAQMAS
Experimental: Compounds were screened for their ability to inhibit full length Aurora-A (AA 1-403) activity using a standard coupled enzyme system (Fox et al., Protein Sci. 7, pp. 2249 (1998)). Reactions were carried out in a solution containing 100 mM HEPES (pH 7.5), 10 mM MgCl2, 25 mM NaCl, 300 μM NADH, 1 mM DTT and 3% DMSO. Final substrate concentrations in the assay were 200 μM ATP (Sigma Chemicals, St Louis, Mo.) and 800 μM peptide (LRRASLG, American Peptide, Sunnyvale, Calif.). Reactions were carried out at 30° C. and 35 nM Aurora-A. Final concentrations of the components of the coupled enzyme system were 2.5 mM phosphoenolpyruvate, 200 μM NADH, 60 μg/ml pyruvate kinase and 20 μg/ml lactate dehydrogenase.
as §1

JAK2 = JAK2 (Homo sapiens, UniProt O60674); experiment: JAK2 inhibition assay (radioactive enzyme assay, as for JAK3); conditions: average Ki if more than one value determined
In short: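 Both kinases: poly(Glu)4Tyr substrate in 100 mM HEPES pH 7.4, 10 mM MgCl2, 1 mM DTT. Run 20 min at 25° C, TCA stop, filter-bound ³³P counted, Ki(app) fitted after background subtraction. JAK3: final [γ-³³P]ATP 5 μM, enzyme added as 2 nM solution. JAK2: final poly(Glu)4Tyr 15 μM, final ATP 12 μM.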

JAK3 = target: T4, JAK3 (Homo sapiens, UniProt P52333); experiment: JAK3 inhibition assay (standard radioactive enzyme assay); conditions: average Ki if more than one value determined
T4 sequence (P52333 1-1124): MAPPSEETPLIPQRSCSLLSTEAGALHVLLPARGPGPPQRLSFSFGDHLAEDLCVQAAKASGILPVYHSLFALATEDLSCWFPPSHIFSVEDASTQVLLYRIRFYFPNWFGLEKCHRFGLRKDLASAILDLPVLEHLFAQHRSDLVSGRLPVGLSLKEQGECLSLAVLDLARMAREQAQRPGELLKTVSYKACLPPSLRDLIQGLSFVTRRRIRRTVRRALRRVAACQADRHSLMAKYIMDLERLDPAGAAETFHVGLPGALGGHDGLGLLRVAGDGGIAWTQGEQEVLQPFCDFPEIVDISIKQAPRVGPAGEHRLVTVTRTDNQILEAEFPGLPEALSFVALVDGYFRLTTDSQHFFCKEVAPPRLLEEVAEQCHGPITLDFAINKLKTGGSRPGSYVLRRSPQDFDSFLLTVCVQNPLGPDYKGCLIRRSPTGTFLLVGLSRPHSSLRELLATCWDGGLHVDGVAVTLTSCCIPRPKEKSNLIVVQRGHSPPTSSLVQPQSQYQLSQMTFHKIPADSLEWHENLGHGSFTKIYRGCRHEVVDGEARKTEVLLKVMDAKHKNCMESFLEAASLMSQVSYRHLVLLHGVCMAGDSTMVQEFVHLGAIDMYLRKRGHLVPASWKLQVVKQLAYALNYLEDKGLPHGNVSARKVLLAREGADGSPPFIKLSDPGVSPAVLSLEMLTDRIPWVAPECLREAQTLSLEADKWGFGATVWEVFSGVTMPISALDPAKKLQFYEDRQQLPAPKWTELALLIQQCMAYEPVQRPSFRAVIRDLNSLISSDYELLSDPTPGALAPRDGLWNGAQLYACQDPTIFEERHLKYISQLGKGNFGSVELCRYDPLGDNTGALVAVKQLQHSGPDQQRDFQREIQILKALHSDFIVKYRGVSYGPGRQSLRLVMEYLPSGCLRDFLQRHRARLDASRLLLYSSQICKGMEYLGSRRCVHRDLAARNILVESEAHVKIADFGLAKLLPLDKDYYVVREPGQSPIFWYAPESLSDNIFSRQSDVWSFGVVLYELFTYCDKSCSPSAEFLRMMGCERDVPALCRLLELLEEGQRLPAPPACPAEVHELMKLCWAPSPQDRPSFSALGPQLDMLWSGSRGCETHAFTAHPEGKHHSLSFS

Sequence of Aurora-B (Q96GD4 whole entry): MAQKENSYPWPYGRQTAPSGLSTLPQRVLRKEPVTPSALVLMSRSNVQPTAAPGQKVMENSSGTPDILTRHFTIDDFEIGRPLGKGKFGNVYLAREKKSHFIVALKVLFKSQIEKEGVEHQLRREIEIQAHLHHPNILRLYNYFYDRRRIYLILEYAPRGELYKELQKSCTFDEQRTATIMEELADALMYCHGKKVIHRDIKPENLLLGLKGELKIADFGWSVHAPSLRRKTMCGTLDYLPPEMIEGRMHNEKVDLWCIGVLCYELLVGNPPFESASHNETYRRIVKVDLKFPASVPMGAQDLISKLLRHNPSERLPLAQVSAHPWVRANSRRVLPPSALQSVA
T1 sequence (Q13464 6-553, species assumed): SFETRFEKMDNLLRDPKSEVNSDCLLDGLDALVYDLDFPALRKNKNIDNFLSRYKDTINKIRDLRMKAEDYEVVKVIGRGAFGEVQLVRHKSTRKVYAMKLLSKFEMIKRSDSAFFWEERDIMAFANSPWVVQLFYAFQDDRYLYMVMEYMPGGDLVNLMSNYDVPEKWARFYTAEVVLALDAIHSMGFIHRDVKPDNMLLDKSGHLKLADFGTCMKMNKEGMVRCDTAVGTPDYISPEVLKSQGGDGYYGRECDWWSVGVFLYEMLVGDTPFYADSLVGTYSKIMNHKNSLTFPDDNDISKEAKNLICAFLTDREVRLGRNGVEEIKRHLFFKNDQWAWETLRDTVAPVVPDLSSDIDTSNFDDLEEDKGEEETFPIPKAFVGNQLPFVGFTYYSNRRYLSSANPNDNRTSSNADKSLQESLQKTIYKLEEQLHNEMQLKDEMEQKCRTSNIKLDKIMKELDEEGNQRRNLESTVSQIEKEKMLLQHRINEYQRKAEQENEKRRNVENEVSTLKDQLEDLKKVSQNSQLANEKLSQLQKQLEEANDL
Sequence of JAK2 (O60674 whole entry, species assumed): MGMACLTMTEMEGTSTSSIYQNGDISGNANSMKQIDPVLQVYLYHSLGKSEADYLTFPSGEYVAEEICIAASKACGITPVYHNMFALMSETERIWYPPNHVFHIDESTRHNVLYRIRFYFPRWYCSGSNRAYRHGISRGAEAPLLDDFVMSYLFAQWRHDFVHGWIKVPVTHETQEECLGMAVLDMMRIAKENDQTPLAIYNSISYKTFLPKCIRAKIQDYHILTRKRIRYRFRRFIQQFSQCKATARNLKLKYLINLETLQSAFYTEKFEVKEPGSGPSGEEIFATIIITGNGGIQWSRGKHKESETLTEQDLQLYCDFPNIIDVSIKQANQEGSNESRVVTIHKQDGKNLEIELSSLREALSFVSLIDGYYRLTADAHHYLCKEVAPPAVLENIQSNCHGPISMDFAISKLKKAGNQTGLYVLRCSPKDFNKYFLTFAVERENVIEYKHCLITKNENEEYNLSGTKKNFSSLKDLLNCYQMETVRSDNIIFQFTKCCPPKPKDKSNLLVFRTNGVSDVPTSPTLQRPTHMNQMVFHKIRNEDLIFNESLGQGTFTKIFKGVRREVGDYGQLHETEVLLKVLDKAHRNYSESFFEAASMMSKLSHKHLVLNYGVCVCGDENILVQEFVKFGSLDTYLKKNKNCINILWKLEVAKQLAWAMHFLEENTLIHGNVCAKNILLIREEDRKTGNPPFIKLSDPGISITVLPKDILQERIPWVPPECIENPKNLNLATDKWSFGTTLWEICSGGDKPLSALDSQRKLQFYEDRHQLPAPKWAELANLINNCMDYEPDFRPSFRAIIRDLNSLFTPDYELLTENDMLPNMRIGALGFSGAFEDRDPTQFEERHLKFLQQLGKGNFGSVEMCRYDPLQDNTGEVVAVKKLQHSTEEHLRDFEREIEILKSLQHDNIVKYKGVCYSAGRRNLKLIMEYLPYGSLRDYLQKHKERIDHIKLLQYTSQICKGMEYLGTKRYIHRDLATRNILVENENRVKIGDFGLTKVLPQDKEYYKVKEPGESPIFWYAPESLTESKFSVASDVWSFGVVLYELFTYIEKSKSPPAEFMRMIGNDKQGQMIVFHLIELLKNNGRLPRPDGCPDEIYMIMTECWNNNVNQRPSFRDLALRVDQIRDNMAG

Ki (ROCK I (AA 6-553)) [nM] | Ki [1] [nM] | Ki (Aurora-B) [nM] | Ki (Aurora-C) [nM] | Ki (JAK2) [nM] | Ki (JAK3) [nM] | Structure (SMILES)
500 to 5000 | < 500 | < 500 | < 500 |  |  | Cc1cc(N[C@@H](C)c2ccc(F)cc2)nc(-c2c[nH]c3ncc(Cl)cc23)n1 [Compound 324]
 | < 500 | < 500 | < 500 |  |  | C[C@H](Nc1nc(-c2c[nH]c3ncc(Cl)cc23)ncc1F)C(=O)NCCC#N [Compound 461]
500 to 5000 | < 500 | < 500 | < 500 |  |  | CNCCNC(=O)[C@H](C)Nc1nc(-c2c[nH]c3ncc(Cl)cc23)ncc1F [Compound 452]
500 to 5000 | < 500 | < 500 | < 500 |  |  | Fc1cnc(-c2c[nH]c3ncc(Cl)cc23)nc1NCC1CCCCN1 (stereo not shown) [Compound 325]
500 to 5000 | 500 to 5000 | 500 to 5000 |  | 500 to 5000 |  | C[C@H](Nc1nc(-c2c[nH]c3ncc(Cl)cc23)ncc1F)C(=O)NCCN1CCNC1=O [Compound 441]
500 to 5000 | < 500 | < 500 | < 500 |  |  | CNC(=O)[C@H](C)Nc1nc(-c2c[nH]c3ncc(Cl)cc23)ncc1F [Compound 340]
500 to 5000 | < 500 | 500 to 5000 |  | 500 to 5000 |  | C[C@H](Nc1nc(-c2c[nH]c3ncc(Cl)cc23)ncc1F)C(=O)NCCCn1ccnc1 [Compound 442]
 | < 500 | 500 to 5000 | < 500 |  |  | CCS(=O)(=O)NCCNC(=O)[C@H](C)Nc1nc(-c2c[nH]c3ncc(Cl)cc23)ncc1F [Compound 445]
500 to 5000 | < 500 |  | < 500 |  | < 500 | C[C@H](Nc1nc(-c2c[nH]c3ncc(Cl)cc23)ncc1F)C(=O)NCCO [Compound 391]
500 to 5000 | < 500 |  | < 500 |  |  | C#Cc1cnc(-c2c[nH]c3ncc(Cl)cc23)nc1N[C@@H](C)C(=O)NCC(F)(F)F [Compound 411]
500 to 5000 | < 500 |  | < 500 |  |  | C[C@H](Nc1nc(-c2c[nH]c3ncc(Cl)cc23)ncc1F)c1cccc(NC(=O)OC(C)(C)C)c1 [Compound 331]
500 to 5000 | < 500 |  | < 500 |  |  | COc1cnc(-c2c[nH]c3ncc(Cl)cc23)nc1N[C@@H](C)C(=O)NCC(F)(F)F [Compound 407]
 | < 500 | < 500 | < 500 |  |  | C[C@H](Nc1nc(-c2c[nH]c3ncc(Cl)cc23)ncc1F)C(=O)NCCNC(=O)OCc1ccccc1 [Compound 458]
500 to 5000 | < 500 |  | < 500 |  |  | C[C@@H](Nc1cccc(-c2c[nH]c3ncc(Cl)cc23)n1)c1ccccc1 [Compound 260]
500 to 5000 | < 500 |  | < 500 |  |  | O=C(CNc1nc(-c2c[nH]c3ncc(Cl)cc23)ncc1F)NCC(F)(F)F [Compound 400]
500 to 5000 | < 500 |  | < 500 |  |  | C[C@H](Nc1cccc(-c2c[nH]c3ncc(Cl)cc23)n1)c1ccccc1 [Compound 252]
